In patent publication US20250204541A1, “GAS PHASE TREATMENT OF PRODUCE” (priority 2022, published 2025):

Experiments:
Format in all cases: in vivo
Botrytis cinerea (Bc) = assay: Antifungal activity of vapor against Botrytis cinerea in grapes; conditions: vapor of 3 mL in a Petri dish for 72 hours
Protocol: (§1) Example 12. The antifungal activity of AITC and DADS vapor against Botrytis cinerea (Bc) in grapes was tested. All samples were wounded by making a 3 mm deep puncture in the skin. Samples were infected by dispensing 1000 Bc spores suspended in 10 μL of water in the wound. The test groups consisted of grapes that were: uninfected and untreated; infected and untreated; exposed to the vapor of 3 mL of AITC in a Petri dish for 72 hours; and exposed to the vapor of 3 mL of DADS in a Petri dish for 72 hours. FIG. 17 quantifies the infection results. […] Both AITC and DADS vapor were effective at controlling Bc mold. Treatment with AITC can potentially lead to changes in color or flavor of the grapes.

grapes = assay: Visible appearance of vapor-treated grapes
Protocol: as §1

[1] = tested on: Colletotrichum gloeosporioides (Cg); assay: Antifungal activity of vapor against Colletotrichum gloeosporioides in avocados
Protocol: Example 7. The antifungal activity of AITC and DADS vapor against Colletotrichum gloeosporioides (Cg) was tested in avocados. All test pieces were wounded by removing the stem and infected by dispensing 1000 Cg spores suspended in 10 μL of water into the wound. The test groups consisted of avocados that were: untreated and uninfected; untreated and infected; treated by dipping in a solution of 0.1 g/L of prochloraz; exposed to the vapor of 3 mL of AITC disposed in a Petri dish; and exposed to the vapor of 3 mL of DADS disposed in a Petri dish. FIG. 9 quantifies the infection results. AITC vapor reduced the incidence of Cg mold by 97% compared to the untreated test group and 70% compared to the prochloraz treated test group. DADS vapor reduced the incidence of Cg mold by 60% compared to the untreated test group.
Example 8. The antifungal activity of a range of DADS vapor exposure times was tested against Cg in avocados. All test pieces were wounded by removing the stem and infected by dispensing 1000 Cg spores suspended in 10 μL of water into the wound. The test groups consisted of avocados that were: infected and untreated; and exposed to the vapor of 3 mL of DADS in a Petri dish for 24 hours, 48 hours, and 72 hours. FIG. 10 quantifies the infection results. Test group exposed to DADS vapor at all exposure times reduced the incidence of Cg mold compared to the untreated test group. A 24 hour DADS exposure reduced the incidence of Cg mold by 8%. A 48 hour DADS exposure reduced the incidence of Cg mold by 25%. A 72 hour DADS exposure reduced the incidence of Cg mold by 57%.
Example 9. The antifungal activity of a range of AITC and carvacrol vapor exposure times was tested against Cg in avocados. To measure the effect of the various treatments on ripening, durometer shore was taken after 7 days of incubation at ambient temperature and high humidity. All samples were wounded by removing the stem and infected by dispensing 1000 Cg spores suspended in 10 μL of water in the wound. The test groups consisted of avocados that were: infected and left untreated on the benchtop; infected and left untreated under a fume hood; exposed to the vapor of 3 mL of AITC in a Petri dish for 24 hours, 48 hours, and 72 hours; and exposed to the vapor of 3 mL of carvacrol in a Petri dish for 72 hours. FIG. 11 quantifies the infection results. […] All exposure times to AITC vapor reduced the incidence of Cg mold compared to the untreated samples. A 24 hour AITC exposure reduced the incidence of Cg mold by 90%. A 48 hour AITC exposure reduced the incidence of Cg mold by 97%. A 72 hour AITC exposure reduced the incidence of Cg mold by 83%. […]
Example 21. The antifungal activity of avocados exposed to AITC vapor and prochloraz was tested against Cg in avocados. To measure the effect of the various treatments on ripening, durometer shore was taken after 5 days of incubation at ambient temperature (about 20° C. to about 25° C.) and high humidity (about 88% relative humidity to about 93% relative humidity). All samples were wounded by removing the stem and infected by dispensing 1000 Cg spores suspended in 10 μL of water in the wound. Exposure to vapor was done by placing the avocados in an airtight container, dispensing AITC onto Whatman filter paper discs, suspending the discs in front of a battery-powered fan, closing the container and incubating the avocados for 30 minutes. After vapor exposure, the avocados were left at ambient temperature, high humidity, and assessed for Cg mold on day 5. Treatment groups consisted of avocados that were: exposed for 30 minutes to the vapor of 125 μL of AITC disposed on a filter paper disc; dipped in a solution of 0.1 g/L of prochloraz and placed to dry on a rack in front of a fan for 30 min; infected and left untreated; and uninfected and untreated. […] To prepare the 0.1 g/L of prochloraz, 10 mg of prochloraz was mixed with 10 mL of ethanol and 90 mL of water. […] A 24 hour AITC exposure reduced the incidence of Cg mold by 90%. […]

[2] = tested on: Penicillium italicum (Pi); assay: Antifungal activity of vapor against Penicillium italicum in wounded, infected mandarins; conditions: 72 hours vapor of 3 mL in a Petri dish
Protocol: Example 2. The antifungal activity of allyl isothiocyanate (AITC) and DADS vapor was tested against Pd and Penicillium italicum (Pi) in mandarins. All samples were wounded by puncturing with a screw. Mandarins were infected by dispensing either 1000 Pd spores or 1000 Pi spores suspended in 10 μL into the wound. The test groups consisted of mandarins that were: uninfected and untreated; uninfected and treated by dipping in a solution of 1 g/L of imazalil; infected with Pd and untreated; infected with Pd and exposed to AITC; infected with Pd and exposed to DADS; infected with Pi and untreated; infected with Pi and exposed to AITC; and infected with Pi and exposed to DADS. Exposure to AITC or DADS consisted of exposing the mandarins for 72 hours to the vapor of 3 mL of the respective compound dispensed in a Petri dish. […] DADS vapor reduced the incidence of Pd mold by 85% and Pi mold by 30% compared to the respective untreated/infected test groups. […] Both AITC and DADS were effective at preventing fungal growth. The inhibition from AITC was approximately 100%, with some changes in visible appearance.

Structure (SMILES)	effect on Bc mold (Botrytis cinerea (Bc))	visible appearance of treated fruit (grapes; in vivo)	reduction of the incidence of Cg mold ([1]; 24 hour AITC exposure as printed)	reduction of the incidence of Cg mold ([1]; Example 9, vapor of 3 mL in a Petri dish for 24 hours, 7 days of incubation)	reduction of the incidence of Cg mold ([1]; Example 9, vapor of 3 mL in a Petri dish for 48 hours, 7 days of incubation)	reduction of the incidence of Cg mold ([1]; Example 9, vapor of 3 mL in a Petri dish for 72 hours, 7 days of incubation)	incidence of Cg mold ([1]; Example 21, 30 minutes vapor of 125 μL on filter paper disc, assessed on day 5)	reduction of the incidence of Cg mold compared to the untreated test group ([1]; vapor of 3 mL in a Petri dish)	reduction of the incidence of Cg mold compared to the prochloraz treated test group ([1]; vapor of 3 mL in a Petri dish, prochloraz 0.1 g/L dip)	inhibition of fungal growth ([2]; mandarins infected with Pi)	effect on Pi infection ([2]; mandarins)	visible appearance of treated fruit (grapes; grapes, vapor of 3 mL in a Petri dish for 72 hours)	reduction of the incidence of Cg mold ([1]; Example 8, vapor of 3 mL in a Petri dish for 24 hours)	reduction of the incidence of Cg mold ([1]; Example 8, vapor of 3 mL in a Petri dish for 48 hours)	reduction of the incidence of Cg mold ([1]; Example 8, vapor of 3 mL in a Petri dish for 72 hours)	reduction of the incidence of Pi mold compared to the untreated/infected test group ([2]; mandarins)
C=CCN=C=S [AITC, allyl isothiocyanate]	substantially eliminated Bc mold	darkening of the fruit	90%	90%	97%	83%	reduced the incidence of Cg mold compared to the untreated samples and the prochloraz treated sample	97%	70%	approximately 100%	substantially prevented					
C=CCSSCC=C [DADS, diallyl disulfide]	substantially eliminated Bc mold							60%				appeared unchanged	8%	25%	57%	30%
